Data: PMC9960827, “Cloning and Characterization of Trypanosoma congolense and T. vivax Nucleoside Transporters Reveal the Potential of P1-Type Carriers for the Discovery of Broad-Spectrum Nucleoside-Based Therapeutics against Animal African Trypanosomiasis” (International Journal of Molecular Sciences, 2023)
Like-named read-outs stand apart in the source and are kept apart here.

Tests used:
L. mexicana Cas9 = test: Resazurin drug sensitivity assay, LmexCas9; assay type: cell-based, Leishmania mexicana; conditions: read-out: LmexCas9 EC50
In short: (§1)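 EC50 values came from fitting data to a variable-slope sigmoid curve. Each value is the mean of at least three independent determinations run on different days.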

T. congolense 6C3 [1] = test: microbe, parasite or virus in culture; assay type: cell-based, Trypanosoma congolense
In short: as §1

T. congolense IL3000 [2] = test: Alamar Blue (resazurin) assay, T. congolense IL3000; assay type: cell-based, Trypanosoma congolense
In short: as §1

T.b.b. B48 [3] = test: Alamar Blue (resazurin) assay, T. b. brucei B48; assay type: cell-based, Trypanosoma brucei brucei
In short: as §1

L. mexicana SUPKO+TvxNT3 = test: microbe, parasite or virus in culture; assay type: cell-based, Leishmania mexicana; conditions: read-out: SUPKO+TvxNT3 EC50
In short: as §1

L. mexicana SUPKO = test: microbe, parasite or virus in culture; assay type: cell-based, Leishmania mexicana
In short: as §1

L. mexicana SUPKO+TcoAT1 = test: microbe, parasite or virus in culture; assay type: cell-based, Leishmania mexicana; conditions: for EC50: read-out: SUPKO+TcoAT1 EC50
In short: as §1

T. brucei wild type = conditions: cited from earlier work
T. brucei TbAT1-KO = conditions: cited from earlier work
TvxNT3 = TvxNT3 (Trypanosoma vivax, UniProt F9WV62); test: cell-based; assay type: cell-based; conditions: for δ(ΔG0): difference in ΔG0 relative to the parent purine (adenosine or inosine)
TvxNT3, sequence (F9WV62 entry or part of it): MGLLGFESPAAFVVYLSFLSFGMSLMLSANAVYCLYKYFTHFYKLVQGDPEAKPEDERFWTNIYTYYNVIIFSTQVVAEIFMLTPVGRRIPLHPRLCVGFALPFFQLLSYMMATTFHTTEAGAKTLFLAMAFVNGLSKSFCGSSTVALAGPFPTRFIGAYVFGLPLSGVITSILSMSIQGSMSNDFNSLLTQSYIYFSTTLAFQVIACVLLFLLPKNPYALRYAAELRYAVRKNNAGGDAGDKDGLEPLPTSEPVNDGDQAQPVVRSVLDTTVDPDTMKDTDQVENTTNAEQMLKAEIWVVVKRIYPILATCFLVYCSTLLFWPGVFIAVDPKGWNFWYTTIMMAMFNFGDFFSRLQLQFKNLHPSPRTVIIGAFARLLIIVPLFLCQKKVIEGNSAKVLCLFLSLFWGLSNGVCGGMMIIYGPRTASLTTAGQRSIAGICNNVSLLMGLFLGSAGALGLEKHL
Description: The information for the T. congolense adenosine transporter (TcoAT1) and four putative T. vivax nucleoside transporters was obtained in the TritrypDB (tritrypdb.org/tritrypdb) genome database. Primers were designed to flank each gene upstream of the 5′ end (forward) and downstream of the 3′ end (reverse) as described (primer sequences in Supplementary Table S2). Following amplification from the genomic DNA of T. congolense or T. vivax, DNA for each extracted gene was ligated into the pNUS-HcN expression vector doubly digested with NdeI using the NEBuilder kit according to the manufacturer’s instructions (New England Biolabs). Construct was transformed into competent E. coli cells, and ligation was confirmed by restriction enzyme digestion of isolated plasmid DNA followed by Sanger sequencing (Source BioScience, Nottingham, UK). Confirmed plasmids were then transfected into L. mexicana cell line in which both NT1 and NT2 were doubly knocked out (SUPKO) and derived from L. mexicana Cas9 [64] as described. Clones grown in medium containing 50 μg/mL neomycin (G418) were collected for further confirmation by PCR with genomic DNA using a forward primer of the transporter gene and a reverse primer of the plasmid.
Uptake assays using radiolabeled trypanocides and/or nucleosides were carried out as described previously. Briefly, parasite cultures were harvested, washed twice in assay buffer (33 mM HEPES, 98 mM NaCl, 4.6 mM KCl, 0.5 mM CaCl2, 0.07 mM MgSO4, 5.8 mM NaH3PO4, 0.03 mM MgCl2, 23 mM NaHCO3, 14 mM D-glucose, pH 7.3), then resuspended and adjusted to a density of 1 × 10^8 cells/mL in assay buffer. The radiolabeled permeant in the presence or absence of different concentrations of potential inhibitors reconstituted in 100 μL assay buffer was deposited on top of 250 μL oil mix in microcentrifuge tubes; 1 × 10^7 parasites in 100 μL assay buffer were added to the tube and incubated for a pre-determined interval. The reaction was stopped by the addition of 1 mL of a high concentration of ice-cold unlabeled substrate in assay buffer (‘stop solution’) and centrifugation, or by immediate centrifugation at […] as appropriate. The microcentrifuge tubes were flash-frozen, and the bottom of each tube containing the cell pellet was cut off and transferred to a scintillation vial. Cell pellets were lysed in 2% SDS, after which scintillation fluid (Scintlogic U, Lablogic) was added, followed by overnight incubation in the dark. Scintillation was measured in a 300SL (Hidex) scintillation counter (Hidex). All the assays were conducted in triplicate and analysis was carried out using Microsoft Excel and GraphPad Prism. All kinetic parameters were obtained on at least 3 separate occasions.
The dose-dependent uptake assay allowed for the affinity of nucleoside analogs to different nucleoside transporters to be determined by measuring the extent to which the analogs compete with and inhibit the uptake of radiolabel adenosine. This allowed for the determination of biochemical parameters such as Km and Vmax through the application of the Michaelis–Menten equation V0 = Vmax([substrate]/([substrate] + Km)). The 50% Inhibitory Concentration (IC50) of the purines and pyrimidines and their analogs was determined from non-linear regression to sigmoid curves with variable slope (Prism 8), and the IC50 of the inhibitor and the Km of the labeled permeant were then used to calculate the inhibition constant (Ki) of the analogs through the Cheng–Prusoff equation: Ki = IC50/(1 + (L/Km)), where L denotes the radiolabel concentration. The calculated Ki was in turn used to determine the Gibbs free energy (ΔG^0) of the inhibitor–transporter interaction using the equation: ΔG^0 = -RTln(Ki), where R represents the gas constant and T symbolizes the absolute temperature in Kelvin [104].

[4] = target: T. b. brucei P1 (TbP1/NT2); conditions: cited from earlier work
TcoAT1 = assay type: cell-based, Trypanosoma congolense; conditions: for Ki: 0.05 µM [3H]-adenosine, 10 s, IC50 converted to Ki, read-out: Ki on the transport of [3H]-adenosine; for ΔG0: Gibbs free energy of binding, from Km or Ki; for δ(ΔG0): loss of Gibbs free energy of binding relative to the parent nucleoside
In short: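 Transporter genes were expressed in an L. mexicana line lacking NT1 and NT2 (SUPKO), and 1 × 10^7 cells in HEPES/bicarbonate buffer pH 7.3 took up radiolabeled permeant through an oil layer, with or without inhibitor. Uptake was stopped with ice-cold unlabeled substrate or by centrifugation, and pellets were counted. IC50 against radiolabeled adenosine was converted to Ki by Cheng–Prusoff using the permeant Km.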

[5] = target: T. congolense adenosine transporter; test: [3H]-adenosine uptake and its inhibition in T. congolense IL3000 bloodstream forms; assay type: cell-based, Trypanosoma congolense; conditions: for Ki: 0.05 µM [3H]-adenosine, 30 s, IC50 converted to Ki, read-out: Ki on the transport of [3H]-adenosine
In short: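 Bloodstream-form T. congolense IL3000 (1 × 10^7 cells) in HEPES/bicarbonate buffer pH 7.3 took up [3H]-adenosine over a set interval, with or without inhibitor, ending by ice-cold unlabeled substrate stop or centrifugation through oil. Pellet radioactivity gave IC50 by sigmoid fit; Ki followed by Cheng–Prusoff using adenosine Km.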

[6] = tested on: T. congolense IL3000-based cell line expressing TbAT1; test: Resazurin drug sensitivity assay, T. congolense IL3000 expressing TbAT1; design: species or system Trypanosoma congolense; conditions: three independent clones, p < 0.0001
Description: EC50 values were determined by plotting to an equation for a sigmoid curve with variable slope (GraphPad Prism 8). All values were the average of at least three independent determinations on different days.

T. congolense IL3000 [7] = tested on: T. congolense IL3000; design: method as in Hulpia et al. [38]; conditions: values marked *; ref Hulpia et al. [38]; cited from earlier work
[8] = tested on: human embryonic kidney (HEK) cells; test: Resazurin toxicity assay on human embryonic kidney cells; assay type: cell-based
In short: as §1

T. equiperdum = tested on: T. equiperdum; design: method as in Hulpia et al. [38]; conditions: compound marked *; ref Hulpia et al. [38]; cited from earlier work
T. b. brucei = conditions: also CNS stage; oral and intraperitoneal administration; cited from earlier work
T. vivax [9] = tested on: T. vivax; design: method as in Mabille et al. [69]; conditions: added for comparison only; ref Mabille et al. [69]; cited from earlier work
T. congolense 6C3 [10] = tested on: T. congolense 6C3; design: method as in Hulpia et al. [38]; conditions: values marked *; ref Hulpia et al. [38]; cited from earlier work
T. vivax [11] = test: T. vivax EC50 (from Mabille et al.); assay type: cell-based, Trypanosoma vivax; conditions: from Table 8 data
T. evansi = tested on: T. evansi; design: method as in Hulpia et al. [38]; conditions: compound marked *; ref Hulpia et al. [38]; cited from earlier work
T.b.b. B48 [12] = tested on: T.b.b. B48; design: method as in Hulpia et al. [38]; conditions: compound marked *; ref Hulpia et al. [38]; cited from earlier work

SMILES: Nc1ncnc2c1ccn2[C@@H]1O[C@H](CO)[C@@H](O)[C@H]1O [Tubercidin, 7-deazaadenosine]
- EC50 (L. mexicana Cas9; Leishmania mexicana): 0.44 ± 0.06 µM
- EC50 (T. congolense 6C3 [1]; Trypanosoma congolense, diminazene resistant strain, resazurin, read-out: T. congolense 6C3 EC50): 1.83 ± 0.39 µM
- EC50 (T. congolense IL3000 [2]; Trypanosoma congolense, read-out: T. congolense IL3000 EC50): 3.16 ± 0.5 µM
- EC50 (T.b.b. B48 [3]; Trypanosoma brucei, read-out: T.b.b. B48 EC50): 4.3 ± 1.3 µM
- EC50 (L. mexicana SUPKO+TvxNT3; Leishmania mexicana): > 100 µM
- EC50 (L. mexicana SUPKO; Leishmania mexicana, read-out: SUPKO EC50, resazurin, promastigotes): > 100 µM
- EC50 (L. mexicana SUPKO+TcoAT1; Leishmania mexicana): > 100 µM
- EC50 (T. brucei wild type): 0.15 ± 0.03 µM
- EC50 (T. brucei TbAT1-KO): 4.3 ± 1.3 µM
- δ(ΔG0) (TvxNT3): -3.148 kcal/mol
- δ(ΔG0) (TvxNT3; listed as tubercidin): 3.15 kcal/mol
- Ki ([4]; T. b. brucei bloodstream forms, read-out: Tbb P1 Ki): 78 ± 6.4 µM
- Tbb P1 ΔG0 [4]: -5.59 kcal/mol
- Ki (TcoAT1): 754 ± 54.3 µM
- ΔG0 (TcoAT1): -4.25 kcal/mol
- δ(ΔG0) (TcoAT1): 4.441 kcal/mol
- δ(ΔG0) (TcoAT1; listed as tubercidin): 4.45 kcal/mol
- Ki [5]: 403 ± 120 µM
- effect of TbAT1 expression on sensitivity [6]: highly significant sensitization

SMILES: Nc1ncnc2c1ccn2C1OC(CO)CC1O (stereo not drawn) [FH7429_d, 3′-deoxytubercidin]
- EC50 (L. mexicana Cas9; resazurin, promastigotes): 15.1 ± 1.7 µM
- EC50 (T. congolense IL3000 [7]): 0.021 ± 0.001 µM
- T. congolense 6C3 RF (T. congolense 6C3 [1]; resistance factor = EC50 (test strain)/EC50(control strain)): 0.91
- fold more potent than tubercidin (T. congolense IL3000 [2]; against T. congolense): 150 fold
- EC50 ([8]; resazurin, 96 well plates, read-out: HEK EC50): > 200 µM
- SI T. equiperdum ([8]; selectivity index = EC50 (HEK cells)/EC50 (T. equiperdum)): >76,000
- SI T. evansi ([8]; selectivity index = EC50 (HEK cells)/EC50 (T. evansi)): >11,800
- fold more potent than tubercidin (T.b.b. B48 [3]; against T. b. brucei B48): 17.2 fold
- EC50 (T. equiperdum): 0.0026 ± 0.0006 µM
- outcome in T. b. brucei mouse model (T. b. brucei): curative
- EC50 (T. vivax [9]): 3.48 ± 0.09 µM
- EC50 (T. congolense 6C3 [10]): 0.019 ± 0.002 µM
- EC50 (L. mexicana SUPKO+TvxNT3; resazurin, promastigotes): > 100 µM
- SUPKO RF (Cas9) (L. mexicana SUPKO; Resistance Factor = EC50(SUPKO)/EC50(Cas9)): >6.63
- EC50 (L. mexicana SUPKO; resazurin, promastigotes, read-out: SUPKO EC50): > 100 µM
- SUPKO+TcoAT1 RF (SUPKO) (L. mexicana SUPKO+TcoAT1; Resistance Factor relative to SUPKO): >1.53
- EC50 (L. mexicana SUPKO+TcoAT1; resazurin, promastigotes): 65.3 ± 7.6 µM
- fold higher EC50 against T. vivax compared to T. congolense (T. vivax [11]): 10–165 fold
- Ki (TvxNT3; 50 nM [3H]-adenosine, 90 s, IC50 converted to Ki, read-out: Ki on the transport of [3H]-adenosine): 388 ± 13 µM
- ΔG0 (TvxNT3; Gibbs free energy of interaction, from Km or Ki): -4.66 kcal/mol
- EC50 (T. evansi): 0.017 ± 0.002 µM
- EC50 (T.b.b. B48 [12]): 0.25 ± 0.02 µM
- Ki (TcoAT1): 810 ± 60 µM
- ΔG0 (TcoAT1): -4.3 kcal/mol
- Ki [5]: 319 ± 93 µM
- ΔG0, Gibbs free energy of interaction ([5]; calculated from Km or Ki): -4.76 kcal/mol
